Data: ChEMBL document CHEMBL1154456, “CoMFA analysis of dual/multiple PPAR activators” (Eur J Med Chem, 2008)

Target: T1, Peroxisome proliferator-activated receptor gamma (Homo sapiens, UniProt P37231)
T1 sequence (P37231 whole entry): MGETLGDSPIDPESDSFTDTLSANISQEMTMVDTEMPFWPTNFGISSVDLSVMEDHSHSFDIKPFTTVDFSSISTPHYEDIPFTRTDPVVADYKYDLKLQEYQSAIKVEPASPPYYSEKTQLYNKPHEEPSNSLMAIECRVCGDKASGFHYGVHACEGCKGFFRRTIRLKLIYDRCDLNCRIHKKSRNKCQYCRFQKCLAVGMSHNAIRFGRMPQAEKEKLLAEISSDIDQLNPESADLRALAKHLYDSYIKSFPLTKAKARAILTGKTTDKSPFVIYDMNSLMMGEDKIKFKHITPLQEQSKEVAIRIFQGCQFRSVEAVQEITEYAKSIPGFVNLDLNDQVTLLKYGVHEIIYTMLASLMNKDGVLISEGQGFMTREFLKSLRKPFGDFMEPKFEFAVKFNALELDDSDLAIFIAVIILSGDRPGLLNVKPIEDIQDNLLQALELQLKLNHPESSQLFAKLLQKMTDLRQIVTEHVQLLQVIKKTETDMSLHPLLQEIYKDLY
Assay: Agonist activity at human PPARgamma expressed in african green monkey CV1 cells co-transfected with Gal4 assessed as reporter activity by transient transactivation assay
Format: functional, cell-based, CV-1
Conditions: not given

SMILES | EC50
CC(C)OC(Cc1ccc(OCCc2noc(-c3ccccc3C(F)(F)F)n2)cc1)C(=O)O (stereo unspecified) | 0.16 µM

Target: T2, Peroxisome proliferator-activated receptor delta (Homo sapiens) (UniProt Q03181)
T2 sequence (whole entry): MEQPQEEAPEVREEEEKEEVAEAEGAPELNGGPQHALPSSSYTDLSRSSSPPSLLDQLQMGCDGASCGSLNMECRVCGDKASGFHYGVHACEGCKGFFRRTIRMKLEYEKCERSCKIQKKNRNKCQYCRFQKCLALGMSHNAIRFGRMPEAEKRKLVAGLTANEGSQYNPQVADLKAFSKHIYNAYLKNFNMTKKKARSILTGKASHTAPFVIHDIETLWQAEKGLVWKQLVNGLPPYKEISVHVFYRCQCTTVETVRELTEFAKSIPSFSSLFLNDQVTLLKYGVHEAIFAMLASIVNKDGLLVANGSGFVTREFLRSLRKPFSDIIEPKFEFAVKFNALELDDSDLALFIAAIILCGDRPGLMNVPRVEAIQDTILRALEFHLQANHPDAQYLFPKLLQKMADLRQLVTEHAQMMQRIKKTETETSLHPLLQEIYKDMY
Assay: Agonist activity at human PPARdelta expressed in african green monkey CV1 cells co-transfected with Gal4 assessed as reporter activity by transient transactivation assay
Format: functional, cell-based
Set-up: concentration or dose not given beside the values
Conditions: CV-1

SMILES | Activity
CC(C)OC(Cc1ccc(OCCc2noc(-c3ccc(F)cc3)n2)cc1)C(=O)O (stereo unspecified) | < 40%
CC(C)OC(Cc1ccc(OCCc2noc(-c3cc(C(F)(F)F)cc(C(F)(F)F)c3)n2)cc1)C(=O)O (stereo unspecified) | < 40%
CC(C)OC(Cc1ccc(OCCc2noc(-c3ccc(Cl)cc3)n2)cc1)C(=O)O (stereo unspecified) | 40%

Further lines, results first:

Activity | SMILES
< 40% | CC(C)OC(Cc1ccc(OCCc2noc(-c3ccccc3)n2)cc1)C(=O)O (stereo unspecified)
< 40% | CC(C)OC(Cc1ccc(OCc2noc(C3CCCCC3)n2)cc1)C(=O)O (stereo unspecified)
